Source: PubChem BioAssay AID1963828 (Molecular Pharmacology Branch, DTP, NCI, 2024)

System: 991263-137-R1-J2-PDC complex spheroid viability
Test: Anticancer human tumor 991263-137-R1-J2-PDC patient-derived colon adenocarcinoma cell line growth inhibition [POLQ]
Settings: for IC50: curve of first compound; for viability, T/C: stronger effect = lower value
Method in brief: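 Three-cell-type spheroids modelling solid tumor plus stroma served as the readout system; POL inhibitors were tested individually and in combination, concentration ranges set by clinical Cmax where known.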

[1] = second compound 0.0316 µM, first compound 0.0316 µM
[2] = second compound 0.0316 µM, first compound 0.1 µM
[3] = second compound 0.0316 µM, first compound 0.316 µM
[4] = second compound 0.0316 µM, first compound 1 µM
[5] = second compound 0.0316 µM, first compound 3.16 µM
[6] = second compound 0.0316 µM, first compound 10 µM
[7] = second compound 0.1 µM, first compound 0.0316 µM
[8] = second compound 0.1 µM, first compound 0.1 µM
[9] = second compound 0.1 µM, first compound 0.316 µM
[10] = second compound 0.1 µM, first compound 1 µM
[11] = second compound 0.1 µM, first compound 3.16 µM
[12] = second compound 0.1 µM, first compound 10 µM
[13] = second compound 0.316 µM, first compound 0.0316 µM
[14] = second compound 0.316 µM, first compound 0.1 µM
[15] = second compound 0.316 µM, first compound 0.316 µM
[16] = second compound 0.316 µM, first compound 1 µM
[17] = second compound 0.316 µM, first compound 3.16 µM
[18] = second compound 0.316 µM, first compound 10 µM
[19] = second compound 1 µM, first compound 0.0316 µM
[20] = second compound 1 µM, first compound 0.1 µM
[21] = second compound 1 µM, first compound 0.316 µM
[22] = second compound 1 µM, first compound 1 µM
[23] = second compound 1 µM, first compound 3.16 µM
[24] = second compound 1 µM, first compound 10 µM
[25] = second compound 3.16 µM, first compound 0.0316 µM
[26] = second compound 3.16 µM, first compound 0.1 µM
[27] = second compound 3.16 µM, first compound 0.316 µM
[28] = second compound 3.16 µM, first compound 1 µM
[29] = second compound 3.16 µM, first compound 3.16 µM
[30] = second compound 3.16 µM, first compound 10 µM
[31] = second compound 10 µM, first compound 0.0316 µM
[32] = second compound 10 µM, first compound 0.1 µM
[33] = second compound 10 µM, first compound 0.316 µM
[34] = second compound 10 µM, first compound 1 µM
[35] = second compound 10 µM, first compound 3.16 µM
[36] = second compound 10 µM, first compound 10 µM
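Further: spheroids exposed to compounds for 7 days before readout.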
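Wherever viability, T/C is given: 100% = DMSO vehicle control viability.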

In the case of `C#Cc1c(F)ccc2cc(O)cc(-c3ncc4c(N5CC6CCC(C5)N6)nc(OCC56CCCN5CC(F)C6)nc4c3F)c12` (stereo unspecified) + Nc1ccc(C#CCN(C(=O)Cc2ncc(C(F)(F)F)cc2C(F)(F)F)c2ccc(F)cc2)nn1, the IC50 (second compound 0.0316 µM) is reported as > 10 µM, the IC50 (second compound 0.1 µM) is reported as > 10 µM and the IC50 (second compound 0.316 µM) is reported as > 10 µM. For the same molecule, the IC50 (second compound 1 µM) was > 10 µM, the IC50 (second compound 3.16 µM) was > 10 µM and the IC50 (second compound 10 µM) was > 10 µM. For the same molecule, the viability, T/C [1] was 104%, the viability, T/C [2] was 111% and the viability, T/C [3] was 99.6%. The viability, T/C [4] was 102%, the viability, T/C [5] was 105% and the viability, T/C [6] was 88%. For the same molecule, the viability, T/C [7] was 103%, the viability, T/C [8] was 108% and the viability, T/C [9] was 96.5%. It also gave a viability, T/C [10] of 102%, a viability, T/C [11] of 103% and a viability, T/C [12] of 92%. It also gave a viability, T/C [13] of 103%, a viability, T/C [14] of 99.8% and a viability, T/C [15] of 99.8%. For the same molecule, the viability, T/C [16] was 102%, the viability, T/C [17] was 105% and the viability, T/C [18] was 108%. It also gave a viability, T/C [19] of 97.5%, a viability, T/C [20] of 95.2% and a viability, T/C [21] of 107%. It also gave a viability, T/C [22] of 86.8%, a viability, T/C [23] of 106% and a viability, T/C [24] of 96.1%. For the same molecule, the viability, T/C [25] was 102%, the viability, T/C [26] was 105% and the viability, T/C [27] was 104%. It also gave a viability, T/C [28] of 112%, a viability, T/C [29] of 123% and a viability, T/C [30] of 98.7%. It also gave a viability, T/C [31] of 100%, a viability, T/C [32] of 98.2% and a viability, T/C [33] of 93.4%. The viability, T/C [34] was 101%, the viability, T/C [35] was 87.6% and the viability, T/C [36] was 80.4%.
In the case of `CC1COCCN1c1cc(C2(O)CC3CCC(C2)O3)c2cnn(-c3ccn[nH]3)c2n1` (stereo unspecified) + Nc1ccc(C#CCN(C(=O)Cc2ncc(C(F)(F)F)cc2C(F)(F)F)c2ccc(F)cc2)nn1, the IC50 (second compound 0.0316 µM) is reported as 1.97 µM, the IC50 (second compound 0.1 µM) is reported as 1.83 µM and the IC50 (second compound 0.316 µM) is reported as 1.97 µM. The IC50 (second compound 1 µM) was 1.81 µM, the IC50 (second compound 3.16 µM) was 1.25 µM and the IC50 (second compound 10 µM) was 0.882 µM. For the same molecule, the viability, T/C [1] was 105%, the viability, T/C [2] was 104% and the viability, T/C [3] was 83%. It also gave a viability, T/C [4] of 62.2%, a viability, T/C [5] of 42.5% and a viability, T/C [6] of 30.5%. It also gave a viability, T/C [7] of 88.2%, a viability, T/C [8] of 97.1% and a viability, T/C [9] of 80.2%. For the same molecule, the viability, T/C [10] was 59%, the viability, T/C [11] was 43.2% and the viability, T/C [12] was 30.8%. It also gave a viability, T/C [13] of 109%, a viability, T/C [14] of 108% and a viability, T/C [15] of 89.9%. The viability, T/C [16] was 63.4%, the viability, T/C [17] was 40.8% and the viability, T/C [18] was 33.1%. For the same molecule, the viability, T/C [19] was 110%, the viability, T/C [20] was 101% and the viability, T/C [21] was 81.5%. It also gave a viability, T/C [22] of 61.5%, a viability, T/C [23] of 38.9% and a viability, T/C [24] of 32.7%. It also gave a viability, T/C [25] of 96.8%, a viability, T/C [26] of 88.7% and a viability, T/C [27] of 77.4%. It also gave a viability, T/C [28] of 52.8%, a viability, T/C [29] of 36.5% and a viability, T/C [30] of 31%. The viability, T/C [31] was 78.3%, the viability, T/C [32] was 82.1% and the viability, T/C [33] was 67.3%. It also gave a viability, T/C [34] of 45.7%, a viability, T/C [35] of 36.4% and a viability, T/C [36] of 24.5%.
`O=C(Nc1ccc(O)c(NS(=O)(=O)c2ccc(F)cc2)c1)c1ccc(-c2ccccc2)cc1` + Nc1ccc(C#CCN(C(=O)Cc2ncc(C(F)(F)F)cc2C(F)(F)F)c2ccc(F)cc2)nn1 was tested, and the IC50 (second compound 0.0316 µM) was > 10 µM, the IC50 (second compound 0.1 µM) was > 10 µM and the IC50 (second compound 0.316 µM) was > 10 µM. The IC50 (second compound 1 µM) was > 10 µM, the IC50 (second compound 3.16 µM) was > 10 µM and the IC50 (second compound 10 µM) was > 10 µM. For the same molecule, the viability, T/C [1] was 97.7%, the viability, T/C [2] was 108% and the viability, T/C [3] was 107%. It also gave a viability, T/C [4] of 104%, a viability, T/C [5] of 119% and a viability, T/C [6] of 100%. The viability, T/C [7] was 111%, the viability, T/C [8] was 97.5% and the viability, T/C [9] was 108%. It also gave a viability, T/C [10] of 107%, a viability, T/C [11] of 107% and a viability, T/C [12] of 107%. The viability, T/C [13] was 101%, the viability, T/C [14] was 105% and the viability, T/C [15] was 107%. The viability, T/C [16] was 105%, the viability, T/C [17] was 114% and the viability, T/C [18] was 101%. For the same molecule, the viability, T/C [19] was 96.2%, the viability, T/C [20] was 100% and the viability, T/C [21] was 104%. The viability, T/C [22] was 105%, the viability, T/C [23] was 97.2% and the viability, T/C [24] was 102%. For the same molecule, the viability, T/C [25] was 107%, the viability, T/C [26] was 108% and the viability, T/C [27] was 95.7%. The viability, T/C [28] was 109%, the viability, T/C [29] was 97.4% and the viability, T/C [30] was 95.3%. It also gave a viability, T/C [31] of 102%, a viability, T/C [32] of 110% and a viability, T/C [33] of 94.5%. The viability, T/C [34] was 104%, the viability, T/C [35] was 92.5% and the viability, T/C [36] was 101%.
